The text below walks through data of US20080058271A1, “Prevention of primary sjogren' s Syndrome by ICA69 deficiency” (priority 2002, published 2008).

Ends that are not written are not given here.

One data set deals with NOD lymph node cells. The experiment in a line: T cell proliferative responses in draining lymph node cells. Type of data set: cell-based, mouse. The settings on record: 10 week old NOD females, pooled lymph node cells. The protocol:
FIG. 2. T cell proliferative responses to ICA69, its dominant epitope, Tep69, BSA, and its dominant NOD mouse epitope, ABBOS, were measured in lymph nodes draining the pancreas (A), and submandibular glands (B), or lymph nodes draining the lower (C) or upper (D) extremities. Gray columns: control cultures stimulated with ovalbumin (OVA) or Medium (MED) only. To obtain sufficient cell numbers, lymph node cells were pooled from seven mice. One of three similar data sets is shown.
(§1) NOD lymph-node, spleen and human peripheral blood T cell responses were measured with three slightly different protocols. Draining lymph node cells from 10 week old NOD females were pooled. 2×10^5 lymph node cells along with 2×10^5 irradiated (1100 rad) syngeneic spleen cells were cultured in serum-free AIM-V media (Life Technologies, Mississauga, Ontario, Canada) in the presence of protein or peptide antigen. Proteins (ICA69, BSA or OVA) were used at concentrations of […], peptides (Tep69, ABBOS) at […]. After 72 hr of incubation, cultures were pulsed overnight with […] of [^3H]thymidine, harvested and subjected to liquid scintillation counting. Experiments were repeated three times with similar results, each with lymph nodes pooled from groups of 4-7 mice. Proliferation assays with spleen cells used 4×10^5 responding cells/well and no irradiated splenocytes. For the detection of human T cell responses, Ficoll-Hypaque purified peripheral blood mononuclear cells (PBMC) were cultured at 10^5 cells/well for one week in serum-free Hybrimax 2897 medium (Sigma) supplemented with human IL-2 (10 U/well) and 0.01-10 mg of antigen^15. This assay performed well in a large, blinded study and in the first international T cell workshop of the Immunology of Diabetes Society^22.
This phenotype could reflect a role for ICA69 as an autoantigen or a role for ICA69 protein-function. To begin an analysis of these two alternatives, we measured T cell autoreactivity to ICA69 and its immunodominant T cell epitope, Tep69, in 10 week old NOD females. Proliferative in vitro recall responses were assessed in draining lymph nodes from various tissues, in order to localize where T cell tolerance to ICA69 was lost. […] Spleen cell responses to ICA69, Tep69, BSA and ABBOS were present as previously described by us^21 and others^24 (data not shown, but for example see FIG. 3F).

In data set [1] the test system is peripheral blood mononuclear cells (PBMC). The experiment in a line: Human T cell proliferative responses in PBMC. The settings on record: for T cell responses in patients with SLE and in healthy controls / patients with primary SS with positive T cell responses: PBMC; for T cell responses in patients with SLE and in healthy controls: SLE n=6, healthy controls n=12; for patients with primary SS with positive T cell responses: n=9, P 0.008 vs. SLE, P 0.004 vs. healthy controls; for T cell responses to control antigens (stimulation index): PBMC of primary SS, SLE patients and healthy controls. Type of data set: cell-based. Here is the method:
FIG. 7.(A) T cell responses to ICA69, BSA, Tep69, and ABBOS were analyzed in patients with primary SS (n=9) SLE patients (n=6) or healthy controls (n=12). Positive responses to tetanus toxoid (TT) contrasted with negative responses to OVA, actin or the type 1 diabetes-associated GAD65 peptide, p555. Data are expressed as stimulation index (SI, experimental/background cpm, as described herein). Background counts were similar in all cohorts (mean±SD: 1154±354 cpm). FIG. 8. Autoantibodies to ICA69 (1 μg protein/lane) were detected in Western blots of sera (1 to 1000 dilution) from patients with pSS (lanes 1-5) but not in controls (lanes 6-8).
Blood samples were obtained from patients (n=15) with primary SS or SLE at the Arthritis Center at Toronto Western Hospital and from healthy, adult volunteers through ethics-board approved consent (n=12). pSS patients were female, had documented xerostomia and xerophthalmia and met San Diego disease criteria. All were anti-Ro antibody positive, 6 had anti-fodrin autoantibodies and all had minor salivary gland biopsy focus scores of >5. Healthy controls (n=12) of similar age and gender profile were recruited from staff. Fresh blood was used for T cell studies. In immunoblotting experiments, sera from patients and controls were diluted at 1:1000 and blotted on nitrocellulose containing […] of recombinant ICA69 protein to detect the presence of anti-ICA69 antibodies.
as §1
Proliferative T cell responses were expressed as stimulation index (SI, experimental/control cpm). SI's greater than the mean SI in OVA-stimulated cultures plus 3 SD were deemed positive^15. Numeric data were compared by Mann-Whitney tests, Fisher's exact test was used to analyze tables. All P values were two-tailed and significance was set at 5%. Figures present mean values plus lSD.
To determine if ICA69 was an autoimmune target in patients with primary SS, we first measured T cell responses to ICA69 and Tep69 in PBMC from patients with primary SS (n=9), systemic lupus erythematosus (SLE, n=6) and age-matched healthy controls (n=12) (FIG. 7A).

In a further data set the test system is MHC class II. The settings on record: reference 21; cited from earlier work.
For data set [2], the system named is NOD mouse sialoadenitis (submandibular gland mononuclear foci). The settings on record: single i.p. 200 mg ABBOS in IFA, 10 wk old NOD females.
Data set [3] relates to NOD mouse pSS (salivary disease). The settings on record: instantly disclosed protocol.

For the molecule AFIKATGKKEDE [Tep69], in the data set with NOD lymph node cells, the “T cell proliferative responses in pancreatic and submandibular lymph node cells” value is on record as “detected”; the “T cell proliferative responses in popliteal or axillary lymph nodes” value is on record as “not in popliteal or axillary lymph nodes”. In addition, in data set [1], the “T cell responses in patients with SLE and in healthy controls” value is recorded as “absent”; the “patients with primary SS with positive T cell responses” value was 8 of 9. The “MHC class II affinity” value in the data set on MHC class II is on record as “very low”.

On to “FKADEKKFWGKYLYE [ABBOS, FKADEKKFWGKYLYE]”, for which, in data set [2], the “mice with moderate disease exacerbation” value is 12% and the “mice with moderate disease exacerbation (of mice analyzed)” value is reported as 2/17. The “disease acceleration with the optimized treatment protocol” value in data set [3] is on record as “no acceleration”.

For the molecule OVA: Ovalbumin (Sigma), control antigen, in data set [1], the “T cell responses to control antigens (stimulation index)” value (“T cell responses … (stimulation index)” for short) is “negative”.

As for “TT: tetanus toxoid, positive control antigen”, the “T cell responses … (stimulation index)” value in data set [1] is reported as “Positive”.

As to actin, the “T cell responses … (stimulation index)” value in data set [1] is recorded as “negative”.

B1: ICA69: Human recombinant islet cell autoantigen 69 kDa (protein)
chain: MSGHKCSYPWDLQDRYAQDKSVVNKMQQKYWETKQAFIKATGKKEDEHVVASDADLDAKLELFHSIQRTCLDLSKAIVLYQKRICFLSQEENELGKFLRSQGFQDKTRAGKMMQATGKALCFSSQQRLALRNPLCRFHQEVETFRHRAISDTWLTVNRMEQCRTEYRGALLWMKDVSQELDPDLYKQMEKFRKVQTQVRLAKKNFDKLKMDVCQKVDLLGASRCNLLSHMLATYQTTLLHFWEKTSHTMAAIHESFKGYQPYEFTTLKSLQDPMKKLVEKEEKKKINQQESTDAAVQEPSQLISLEEENQRKESSSFKTEDGKSILSALDKGSTHTACSGPIDELLDMKSEEGACLGPVAGTPEPEGADKDDLLLLSEIFNASSLEEGEFSKEWAAVFGDGQVKEPVPTMALGEPDPKAQTGSGFLPSQLLDQNMKDLQASLQEPAKAASDLTAWFSLFADLDPLSNPDAVGKTDKEHELLNA
For B1, in the data set with NOD lymph node cells, the “T cell proliferative responses in pancreatic and submandibular lymph node cells” value is “detected”; the “T cell proliferative responses in popliteal or axillary lymph nodes” value was “not in popliteal or axillary lymph nodes”. In data set [1], the “T cell responses in patients with SLE and in healthy controls” value is “absent”; the “patients with primary SS with positive T cell responses” value was 8 of 9.
